Patent publication US20030113330A1, “Methods for treating pulmonary fibrosis” (priority 1999, published 2003)
Where a SMILES comes first, the peptide text is derived from it. The star is where a group is joined. Cbz = O=C(OCc1ccccc1)*; CH2F = FC*

Experiments:
primary rat AEC [1] = test: Angiotensin II-induced apoptosis in primary rat AEC (nuclear fragmentation, PI); format: cell-based; details: ANGII 5.0 uM; saralasin 50 ug/ml, lisinopril 500 ng/ml
Text: Cell Culture. The human lung adenocarcinoma cell line A549 was obtained from American Type Culture Collection and cultured in Ham's F12 medium supplemented with 10% fetal bovine serum (FBS). Primary alveolar epithelial cells were isolated from adult male Wistar rats as described in Uhal et al., Am. J. Physiol. Suppl. (Oct.) 261:110-117 (1991) and Uhal et al., Am. J. Physiol. 269:L819-L828 (1995). The primary cells were studied at day two of culture, a time at which they are type II cell-like by accepted morphologic and biochemical criteria, see Uhal, Am. J. Physiol. 272:L1031-L1045 (1997). […] J. Physiol. Suppl. (October) 261:110-117 (1991). All cells were seeded in 24-well or 6-well chambers, and all experiments were conducted at subconfluent densities of 80-90% in serum-free Ham's F12 medium. Test reagents were diluted with Ham's F12 medium and were applied for 20 h at 37° C. in a 5% CO2 incubator.
Detection of Apoptosis. Detection of apoptotic cells with propidium iodide (PI) was conducted as described in Uhal, et al., Am. J. Physiol. 275:L1013-1017 (1998) following digestion of ethanol-fixed cells with DNAse-free RNAse in PBS containing 5 ug/ml PI. Assay of Annexin V binding by flow cytometry was performed essentially as described for human lung fibroblasts in Uhal, et al., Am. J. Physiol. 275:L998-L1005 (1998) after trypsinization of cells from culture vessels. Assay of Caspase-3 activity was performed on viable suspension cultures as reported in Uhal, et al., Am. J. Physiol. 275:L1013-1017 (1998). In all assays, detached cells were retained by centrifugation of the culture vessels during fixation with 70% ethanol, or by retention of culture media and recovery by centrifugation before assay.
(§1) For microscopy, cells were cultured on glass cover slips, incubated with test reagents and fixed with 70% ethanol. The fixed cells were immunolabeled overnight at 4° C. with monoclonal antibodies to cytokeratins 7 and 19 (Chemicon International, Temecula, Calif.), and then for one hour at 37° C. with anti-mouse IgG-rhodamine and DNAse-free RNAse (Boehringer Mannheim, Indianapolis, Ind.) The cover slips were then rinsed in distilled water three times and mounted under Fluoromount Solution (Southern Biotechnology Associates, Birmingham, Ala.) containing 5 ug/ml propidium iodide. Photomicroscopy was performed as described in Uhal, et al., Am. J. Physiol. 275:L1013-1017 (1998).
Apoptosis in alveolar epithelial cells was quantitated by fluorescence detection of chromatin condensation and nuclear fragmentation in alcohol-fixed cells stained with propidium iodide. See Uhal, et al., Am. J. Physiol. 275:L1013-1017 (1998). […] After 20 h, the culture vessel was centrifuged to retain detached cells and labeled with anticytokeratin antibodies and propidium iodide. […] Double labeling with PI and monoclonal antibodies to cytokeratins 7 and 19 identified cells with both apoptotic nuclear morphology and positive anticytokeratin immunoreactivity.

[2] = test system: primary alveolar epithelial cells (AEC); test: Bleomycin-induced apoptosis of primary AEC in vitro
Procedure: Lung Cell Isolation and Detection of Apoptosis In Vitro. Primary alveolar epithelial cells (AEC) were isolated from adult male Wistar rats as described above. The primary cells were studied at day two of culture, a time at which they are type II cell-like by accepted morphologic and biochemical criteria, see Paine et al., Am. J. Physiol. […] All cells were seeded in 24-well or 6-well chambers, and all experiments were conducted at subconfluent densities of 80-90% in serum-free Ham's F12 medium. Test reagents were diluted with Ham's F12 medium and were applied for 20 hours at 37° C. in a 5% CO2 incubator.
Detection of apoptotic cells with propidium iodide (PI) was conducted as described above, following digestion of ethanol-fixed cells with DNAse-free RNAse in PBS containing 5 ug/ml PI.
Apoptosis was detected as described above.

primary rat AEC [3] = test: Angiotensinogen-induced apoptosis in primary rat AEC; format: cell-based; details: ANG 5.0 uM; saralasin 50 ug/ml, lisinopril 500 ng/ml
Procedure: Cell Culture. […] J. Physiol. Suppl. […] J. Physiol. […] J. Physiol. […] J. Physiol. Suppl.
Detection of Apoptosis. […] J. Physiol. […] Assay of Annexin V binding by flow cytometry was performed essentially as described for human lung fibroblasts in Uhal, et al., Am. J. Physiol. […] Assay of Caspase-3 activity was performed on viable suspension cultures as reported in Uhal, et al., Am. J. Physiol.
as §1, with “Physiol.” for “Physiol. 275:L1013-1017 (1998).”

A549 cells = test: FAS-induced apoptosis (activating anti-FAS antibody CH-11) in A549 cells, ISEL / nuclear fragmentation; format: cell-based, human; details: CH-11 200 ng/ml; lisinopril 500 ng/ml, saralasin 5 mg/ml

## CCc1nc2c(C)cc(C)nc2n1Cc1ccc(-c2ccccc2-c2nn[nH]n2)cc1 [L158809]
Primary rat AEC [1]
  inhibition of ANGII-induced apoptosis of primary rat AEC: could block

## COc1ccc2c(c1OCc1ccccc1)C[C@@H](C(=O)O)N(C(=O)C(c1ccccc1)c1ccccc1)C2 [PD126055]
Primary rat AEC [1]
  inhibition of ANGII-induced apoptosis of primary rat AEC: unable to significantly inhibit

## COC(=O)C[C@H](NC(=O)[C@H](C)NC(=O)[C@@H](NC(=O)OCc1ccccc1)C(C)C)C(=O)CF [ZVAD-fmk, N-benzylcarboxy-Val-Ala-Asp-[O-Me]-CH2F] (Cbz-Val-Ala-Asp(OMe)-CH2F)
[2]; bleomycin 50 uM, captopril 500 ng/ml, ZVAD-fmk 60 uM, aurintricarboxylic acid 10 uM
  inhibition of bleomycin-induced apoptosis of AEC in vitro: 78%

## C[C@H](CS)C(=O)N1CCC[C@H]1C(=O)O [captopril]
[2]; Rattus norvegicus, Epithelial cell, read-out: inhibition of bleomycin-induced apoptosis of AEC in vitro
  inhibition at 0.5 µg/mL: 76%

## NCCCC[C@H](N[C@@H](CCc1ccccc1)C(=O)O)C(=O)N1CCC[C@H]1C(=O)O [lisinopril]
Primary rat AEC [3]
  inhibition of angiotensinogen-induced apoptosis: blocked
A549 cells
  inhibition of FAS-induced apoptosis: 61%
Primary rat AEC [1]
  inhibition of ANGII-induced apoptosis of primary rat AEC: did not block

## CNCC(=O)N[C@@H](CCCN=C(N)N)C(=O)N[C@H](C(=O)N[C@@H](Cc1ccc(O)cc1)C(=O)N[C@H](C(=O)N[C@@H](Cc1cnc[nH]1)C(=O)N1CCC[C@H]1C(=O)N[C@@H](C)C(=O)O)C(C)C)C(C)C [saralasin]
Primary rat AEC [3]
  inhibition of angiotensinogen-induced apoptosis: completely inhibited
A549 cells
  inhibition of FAS-induced apoptosis: 71%
Primary rat AEC [1]
  inhibition of ANGII-induced apoptosis of primary rat AEC: completely inhibited
